Results on 15 compounds are retold here after patent publication US9359308B2, “Pyrazine kinase inhibitors” (Portola Pharmaceuticals, Inc., priority 2011, dated 2016).

For the assay, the target named is T1, full length active recombinant SYK enzyme (Homo sapiens, UniProt P43405).
T1 construct: full length active recombinant SYK enzyme (Millipore, Calif.); purchased Millipore
As to the kind of experiment: Inhibition of Syk tyrosine phosphorylation activity (LANCE TR-FRET kinase assay). To be noted: activity in the Syk assays, class symbols. It counts as biochemical. A digest of the protocol: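 1 nM full-length active recombinant SYK phosphorylated 550 nM biotin-DEEDYESP-OH with 100 μM ATP in 50 mM Tris pH 7.5, 5 mM MgCl2, 1 mM DTT and 3% DMSO for 1 h at room temperature. After EDTA quench, Eu-anti-phosphotyrosine/SA-APC TR-FRET was read after 1 h. IC50s came from non-linear regression.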
On the technique in general: TR-FRET usually uses a lanthanide donor and a delayed reading to cut background.
The term IC50 denotes the concentration needed to halve the response being measured. Consider `NC(=O)c1ncc(N[C@@H]2CCCC[C@@H]2N)nc1Nc1ccc(-n2ccccc2=O)cc1` [Example 440, 5-(((1R,2S)-2-aminocyclohexyl)amino)-3-((4-(2-oxopyridin-1(2H)-yl)phenyl)amino)pyrazine-2-carboxamide], for which the IC50 was 10 to 100 nM. With `NC(=O)c1ncc(N[C@@H]2CCCC[C@@H]2N)nc1Nc1ccc(N2CCCCC2=O)cc1` [Example 441, 5-(((1R,2S)-2-aminocyclohexyl)amino)-3-((4-(2-oxopiperidin-1-yl)phenyl)amino)pyrazine-2-carboxamide], the IC50 lay in the range of 10 to 100 nM. Consider `NC(=O)c1ncc(N[C@@H]2CCCC[C@@H]2N)nc1Nc1ccc(N2CCOCC2=O)cc1` [Example 442, 5-(((1R,2S)-2-aminocyclohexyl)amino)-3-((4-(3-oxomorpholino)phenyl)amino)pyrazine-2-carboxamide], for which the IC50 lay in the range of 10 to 100 nM. As for `NC(=O)c1ncc(N[C@@H]2CCCC[C@@H]2N)nc1Nc1ccc(N2CCOCC2=O)c(F)c1` [Example 443, 5-(((1R,2S)-2-aminocyclohexyl)amino)-3-((3-fluoro-4-(3-oxomorpholino)phenyl)amino)pyrazine-2-carboxamide], the IC50 was in the range of 10 to 100 nM. Turning to `NC(=O)c1ncc(N[C@@H]2CCCC[C@@H]2N)nc1Nc1cccc(-c2ncco2)c1` [Example 444, 5-(((1R,2S)-2-aminocyclohexyl)amino)-3-((3-(oxazol-2-yl)phenyl)amino)pyrazine-2-carboxamide], the IC50 was less than 1 nM.

For the compound `NC(=O)c1ncc(N[C@@H]2CCCC[C@@H]2N)nc1Nc1ccc(-c2ncco2)cc1` [Example 445, 5-(((1R,2S)-2-aminocyclohexyl)amino)-3-((4-(oxazol-2-yl)phenyl)amino)pyrazine-2-carboxamide], the IC50 was 1 to 10 nM. For the compound `CC[C@@H](Nc1cnc(C(N)=O)c(Nc2ccc(-c3ncco3)cc2)n1)C(N)=O` [Example 446], the IC50 was 1 to 10 nM. In the case of `NC(=O)c1ncc(N[C@@H]2CCCC(F)(F)[C@@H]2N)nc1Nc1cnn2ccccc12` [Example 447, 5-(((1R,2R)-2-amino-3,3-difluorocyclohexyl)amino)-3-(pyrazolo[1,5-a]pyridin-3-ylamino)pyrazine-2-carboxamide], the IC50 fell in the range of 1 to 10 nM. For the compound `NC(=O)c1ncc(N[C@@H]2CCCC(F)(F)[C@@H]2N)nc1Nc1csc2ncccc12` [Example 448, 5-(((1R,2R)-2-amino-3,3-difluorocyclohexyl)amino)-3-(thieno[2,3-b]pyridin-3-ylamino)pyrazine-2-carboxamide], the IC50 lay in the range of 1 to 10 nM.

On to `NC(=O)c1ncc(N[C@@H]2CCCC[C@@H]2N)nc1Nc1cncs1` [Example 449, 5-(((1R,2S)-2-aminocyclohexyl)amino)-3-(thiazol-5-ylamino)pyrazine-2-carboxamide], for which the IC50 is more than 1000 nM. As for `CC[C@@H](Nc1cnc(C(N)=O)c(Nc2cccc(-c3ncco3)c2)n1)C(N)=O` [Example 450, (R)-5-((1-amino-1-oxobutan-2-yl)amino)-3-((3-(oxazol-2-yl)phenyl)amino)pyrazine-2-carboxamide], the IC50 was 10 to 100 nM. For the compound `NC(=O)c1ncc(N[C@@H]2CCCC(F)(F)[C@@H]2N)nc1Nc1ccc2c(c1)COCC2` [Example 451, 5-(((1R,2R)-2-amino-3,3-difluorocyclohexyl)amino)-3-(isochroman-7-ylamino)pyrazine-2-carboxamide], the IC50 is 1 to 10 nM.

For the compound `NC(=O)c1ncc(N[C@@H]2CCCC(F)(F)[C@@H]2N)nc1Nc1ccc2c(c1)COC2` [Example 452, 5-(((1R,2R)-2-amino-3,3-difluorocyclohexyl)amino)-3-((1,3-dihydroisobenzofuran-5-yl)amino)pyrazine-2-carboxamide], the concentration for half-maximal inhibition (IC50) was in the range of 1 to 10 nM. With `NC(=O)c1ncc(N[C@@H]2CCCC(F)(F)[C@@H]2N)nc1Nc1ccc2c(c1)CCOC2` [Example 453, 5-(((1R,2R)-2-amino-3,3-difluorocyclohexyl)amino)-3-(isochroman-6-ylamino)pyrazine-2-carboxamide], the IC50 lay in the range of 1 to 10 nM.

In the case of `NC(=O)c1ncc(N[C@@H]2CCCC(F)(F)[C@@H]2N)nc1Nc1ccc2c(c1)CCC2` [Example 454, 5-(((1R,2R)-2-amino-3,3-difluorocyclohexyl)amino)-3-((2,3-dihydro-1H-inden-5-yl)amino)pyrazine-2-carboxamide], the IC50 is 10 to 100 nM.
